Results as given in patent US12692230B2, “(1 h-indol-5-yl)acrylamide derivatives as inhibitors of TEAD proteins and the hippo-YAP1/TAZ signaling cascade for the treatment of cancer” (Sanofi, priority 2020, dated 2026).
pIC50: −log10 of the molar value.

What follows are compounds tested on TEAD responsive promoter element (8XGTIIC-Luciferase; YAP1-TEAD and TAZ-TEAD activity) (assay: TEAD-Luciferase reporter assay). Conditions: Homo sapiens; luciferase activity in tumor cell lines with stable integration of the 8XGTIIC-Luciferase construct; 10 doses between 1 and 10000 nM, 48 hrs.
Format: cell-based
Text: TEAD-Luciferase Reporter Assay
Luciferase-based gene reporter assays were used, employing the TEAD responsive promoter element that are stably integrated to different human tumor cell lines in order to monitor YAP1-TEAD and TAZ-TEAD activity and to study YAP1/TAZ-TEAD activity modulation by small molecule compounds. Luciferase-based gene reporter assays employing the GAPDH promoter element and stably integrated to different human tumor cell lines are used as counter screen control cell lines.
Tumor cell lines with stable integration of the 8XGTIIC-Luciferase construct (Dupont et al., Nature 2011) or the GAPDH-Luciferase control plasmid, are seeded in culture medium in 96-well plates at a density of 8000 cells/well. Following an overnight incubation in a 37° C., 5% CO2 growth chamber, cells are treated with compounds described above at 10 doses ranging between 1 and 10000 nM for 48 hrs. After compound incubation, cells are lysed with Bright-Glo Luciferase Assay System (Promega E2620) and luciferase activity is measured using a luminescent plate reader.
The inhibitory activity of the compounds with respect to luciferase activity is given by the concentration which inhibits 50% of activity of non-treated cells. IC50s are determined with a nonlinear regression model on XLfit software analysis (IDBS, UK).

SMILES | pIC50
C=CC(=O)Nc1ccc2c(ccn2Cc2cccc(OC(F)(F)F)c2)c1 [Example 8, N-(1-(3-(trifluoromethoxy)benzyl)-1H-indol-5-yl)acrylamide] | 6.53
C=CC(=O)Nc1cc2ccn(-c3ccc(C(F)(F)F)cc3)c2cc1F [Example 73, N-(6-fluoro-1-(4-(trifluoromethyl)phenyl)-1H-indol-5-yl)acrylamide] | 6.61
C=CC(=O)Nc1ccc2c(ccn2CC2CCN(c3ccc(C(F)(F)F)cc3)CC2)c1 [Example 35, N-(1-((1-(4-(trifluoromethyl)phenyl)piperidin-4-yl)methyl)-1H-indol-5-yl)acrylamide] | 5.63
C=CC(=O)Nc1ccc2c(ccn2-c2ccnc(C(F)(F)F)c2)c1 [Example 68, N-(1-(2-(trifluoromethyl)pyridin-4-yl)-1H-indol-5-yl)acrylamide] | 5.96
C=CC(=O)Nc1ccc2c(ccn2-c2ccc(C(F)(F)F)cc2C)c1 [Example 65, N-(1-(2-methyl-4-(trifluoromethyl)phenyl)-1H-indol-5-yl)acrylamide] | 7.23
C=CC(=O)Nc1ccc2c(c1)c(CO)cn2-c1ccc(C(F)(F)F)cc1 [Example 82, N-(3-(hydroxymethyl)-1-(4-(trifluoromethyl)phenyl)-1H-indol-5-yl)acrylamide] | 6.80
C=CC(=O)Nc1ccc2c(ccn2Cc2cccc(C(F)(F)F)c2)c1 [Example 1, N-(1-(3-(trifluoromethyl)benzyl)-1H-indol-5-yl)acrylamide] | 7.62
C=CC(=O)Nc1ccc2c(c1)c(COC)cn2Cc1cccc(C(F)(F)F)c1 [Example 60, N-(3-(methoxymethyl)-1-(3-(trifluoromethyl)benzyl)-1H-indol-5-yl)acrylamide] | 7.06
C=CC(=O)Nc1ccc2c(ccn2Cc2cccc(C)c2)c1 [Example 17, N-(1-(3-methylbenzyl)-1H-indol-5-yl)acrylamide] | 7.27
C=CC(=O)Nc1ccc2c(c1)c(COC)cn2-c1ccc(C(F)(F)F)cc1 [Example 72, N-(3-(methoxymethyl)-1-(4-(trifluoromethyl)phenyl)-1H-indol-5-yl)acrylamide] | 7.82
C=CC(=O)Nc1ccc2c(c1)c(C)cn2-c1ccc(C(F)(F)F)cc1 [Example 69, N-(3-methyl-1-(4-(trifluoromethyl)phenyl)-1H-indol-5-yl)acrylamide] | 8.05
C=CC(=O)Nc1ccc2c(ccn2CC2CCC(F)C2)c1 (stereo not drawn) [Example 26, N-(1-((3-fluorocyclopentyl)methyl)-1H-indol-5-yl)acrylamide] | 6.45
C=CC(=O)Nc1ccc2c(ccn2CC2CC3(C2)CC3(F)F)c1 (stereo not drawn) [Example 25, N-(1-((1,1-difluorospiro[2.3]hexan-5-yl)methyl)-1H-indol-5-yl)acrylamide] | 6.00
C=CC(=O)Nc1ccc2c(ccn2-c2ccc(F)c(F)c2)c1 [Example 49, N-(1-(3,4-difluorophenyl)-1H-indol-5-yl)acrylamide] | < 5.00
C=CC(=O)Nc1ccc2c(ccn2-c2ccc(F)cc2)c1 [Example 48, N-(1-(4-fluorophenyl)-1H-indol-5-yl)acrylamide] | < 5.00
C=CC(=O)Nc1ccc2c(ccn2-c2cccnc2)c1 [Example 47, N-(1-(pyridin-3-yl)-1H-indol-5-yl)acrylamide] | < 5.00
C=CC(=O)Nc1ccc2c(ccn2CCOCC(F)(F)F)c1 [Example 37, N-(1-(2-(2,2,2-trifluoroethoxy)ethyl)-1H-indol-5-yl)acrylamide] | < 5.00
C=CC(=O)Nc1ccc2c(ccn2-c2cc(F)cc(F)c2)c1 [Example 66, N-(1-(3,5-difluorophenyl)-1H-indol-5-yl)acrylamide] | 5.73

SMILES | pIC50
C=CC(=O)Nc1ccc2c(ccn2-c2ccc(C(F)(F)F)cn2)c1 [Example 46, N-(1-(5-(trifluoromethyl)pyridin-2-yl)-1H-indol-5-yl)acrylamide] | < 5.00
C=CC(=O)Nc1ccc2c(ccn2Cc2ccc(-c3cccc(C(F)(F)F)c3)cc2)c1 [Example 31, N-(1-((3′-(trifluoromethyl)-[1,1′-biphenyl]-4-yl)methyl)-1H-indol-5-yl)acrylamide] | 7.70
C=CC(=O)Nc1ccc2c(ccn2-c2ccc(C(F)(F)F)cc2)c1 [Example 44, N-(1-(4-(trifluoromethyl)phenyl)-1H-indol-5-yl)acrylamide] | 8.10
C=CC(=O)Nc1ccc2c(ccn2Cc2cccc(C3CC3)c2)c1 [Example 15, N-(1-(3-cyclopropylbenzyl)-1H-indol-5-yl)acrylamide] | 6.30
C=CC(=O)Nc1ccc2c(ccn2Cc2ccc([Si](C)(C)C)cc2)c1 [Example 42, N-(1-(4-(trimethylsilyl)benzyl)-1H-indol-5-yl)acrylamide] | 6.68
C=CC(=O)Nc1ccc2c(ccn2CCCCC(F)(F)F)c1 [Example 3, N-(1-(5,5,5-trifluoropentyl)-1H-indol-5-yl)acrylamide] | 7.60
C=CC(=O)Nc1ccc2c(ccn2[C@H]2CC[C@@H](C(F)(F)F)CC2)c1 [Example 34, Cis-N-[1-[4-(trifluoromethyl)cyclohexyl]indol-5-yl]acrylamide] | ≤ 5.00
C=CC(=O)Nc1ccc2c(ccn2Cc2cccc(OC)c2)c1 [Example 12, N-(1-(3-methoxybenzyl)-1H-indol-5-yl)acrylamide] | 6.62
C=CC(=O)N(C)c1ccc2c(ccn2Cc2cccc(C(F)(F)F)c2)c1 [Example 2, N-methyl-N-(1-(3-(trifluoromethyl)benzyl)-1H-indol-5-yl)acrylamide] | 5.96
C=CC(=O)Nc1cc2ccn(Cc3cccc(C(F)(F)F)c3)c2cc1Cl [Example 78, N-(6-chloro-1-(3-(trifluoromethyl)benzyl)-1H-indol-5-yl)acrylamide] | 6.85
C=CC(=O)Nc1ccc2c(ccn2Cc2cccc(C#N)c2)c1 [Example 54, N-(1-(3-cyanobenzyl)-1H-indol-5-yl)acrylamide] | 6.41
C=CC(=O)Nc1ccc2c(ccn2CC2CCC(F)(F)CC2)c1 [Example 22, N-(1-((4,4-difluorocyclohexyl)methyl)-1H-indol-5-yl)acrylamide] | 5.85
C=CC(=O)Nc1ccc2c(ccn2-c2ccc(C(F)(F)F)nc2)c1 [Example 45, N-(1-(6-(trifluoromethyl)pyridin-3-yl)-1H-indol-5-yl)acrylamide] | 6.97
C=CC(=O)Nc1ccc2c(ccn2Cc2cc(F)cc(F)c2)c1 [Example 52, N-(1-(3,5-difluorobenzyl)-1H-indol-5-yl)acrylamide] | 7.39
C=CC(=O)Nc1ccc2c(c1)cc(C)n2-c1ccc(C(F)(F)F)cc1 [Example 70, N-(2-methyl-1-(4-(trifluoromethyl)phenyl)-1H-indol-5-yl)acrylamide] | 7.92
C=CC(=O)Nc1cc2ccn(Cc3cccc(C(F)(F)F)c3)c2cc1F [Example 80, N-(6-fluoro-1-(3-(trifluoromethyl)benzyl)-1H-indol-5-yl)acrylamide] | 7.74
C=CC(=O)Nc1ccc2c(c1)c(C(N)=O)cn2-c1ccc(C(F)(F)F)cc1 [Example 84, 5-Acrylamido-1-(4-(trifluoromethyl)phenyl)-1H-indole-3-carboxamide] | 6.21
C=CC(=O)Nc1ccc2c(ccn2[C@H]2CC[C@H](C(F)(F)F)CC2)c1 [Example 33, Trans-N-[1-[4-(trifluoromethyl)cyclohexyl]indol-5-yl]acrylamide] | 7.39
